# Experimental data published in patent US20050019315A1, “Odor control compositions and methods” (Novozymes North America, Inc., priority 2003, published 2005).
# Assay: Odor panel rating of glucose/gluconic acid solutions inoculated with odorous filtrate
# Details: capped beakers, 40° C., 7 days
# Method: Another 250 mL of (4) 10 mM glucose was put it in beaker 4. 20 mg protein/L of carbohydrate oxidase (Microdochium nivale carbohydrate oxidase, Novozymes A/S) was added to beaker 4 and it was kept at a 40° C. for 1 hr. 0.5 mL of odorous 3-day filtrate from the aerobic control in Example 2 was added to all of the beakers. The beaker were capped and placed in a 40° C. water bath for 7 days. At the end of the incubation, a panel smelled the samples as described in Example 1.
smiles,measurement,setting,value
"O=C(O)[C@H](O)[C@@H](O)[C@H](O)[C@H](O)CO [Gluconic Acid, gluconic acid]",formation of odor (in words),,will not lead to odorous smell
same,Odor Level,"0.5 mL odorous filtrate added, rating 1 to 5, 5 worst",1
